Results published in PMC12333940, “A prometabolite strategy inhibits cardiometabolic disease in an ApoE^–/– murine model of atherosclerosis” (JCI Insight, 2025).
Values joined by “and” are separate entries in the source; they are usually repeats but may differ in a detail not shown here. Equal entries are not always repeated.

Legend:
[1] = test system: RAW 264.7 macrophages; assay: Cell viability assay (MTS); type: cell-based; details: for Viability: 24 hours
Method: CellTiter 96 AQueous one Solution Cell Proliferation Assay (MTS) (Promega, G3582) was used according to the manufacturer’s instructions to analyze cytotoxicity of SerBut and NaBut at various concentrations (0.15–12 mM) in RAW 264.7 macrophages. Viability values were normalized to untreated cells (100%) and Triton X-100–treated cells (0%). Since absorbance is directly proportional to the number of living cells in culture, values greater than 100% indicate cell growth compared with controls.

[2] = test system: ApoE^–/– mice on an HFD; assay: CD68 immunohistochemistry and Stary plaque severity grading; type: in vivo, mouse; set-up: STARY Score Average: scale not given here
Method: (§1) For 6 weeks, mice were freely administered water, water containing 150 mM SerBut, or water containing an equimolar amount of NaBut. SerBut water was pH adjusted using 10 M NaOH to a final pH of 7.4. […] In concert, mice were fed an HFD with 42% from fat and 0.2% total cholesterol (Envigo, TD-88137) ad libitum. After 6 weeks, mice were euthanized. The lMLNs, ILNs, spleen, heart, and aorta were harvested and processed for flow cytometry analysis ([67]). The liver was harvested and part was homogenized in tissue protein extraction reagent buffer (Invitrogen, 78510) supplemented with protease inhibitor mini tablets (Thermo Fisher Scientific, PIA32955) for Western blotting and qPCR. The remaining liver was fixed with 4% paraformaldehyde and embedded in paraffin for histological analysis.
Frozen aortic root sections were fixed in Zamboni fixative for 10 minutes. After TBS wash, slides were loaded on Leica Bond RX automated stainer. Anti–mouse CD68 antibody (BioLegend, catalog 137001, clone FA-11; 1:4000) was applied to tissue sections for 60 minutes of incubation at room temperature. Following TBS wash, tissue sections were incubated with rabbit anti-rat IgG (Thermo Fisher Scientific, 31219) 30 minutes. The antigen-antibody binding was detected using Polymer-HRP (Leica Biosystems, Bond Polymer Refine Detection kit, DS9800). The slides were coverglassed by autocoverslipper (Tissue-Tek Glas g2). Stary plaque severity grading was done as previously described ([42]). Briefly, each individual mouse was scored if there were at least 2 sections showing all 3 leaflets of the aortic valve that could reasonably be scored. Each leaflet was scored individually per aortic valve and subsequently averaged per section. All sections were averaged per mouse for a final score. Sections were graded blinded. Table 1 explains the scoring scale. Quantitative analysis of plaque features was performed using a classifier in QuPath (v.05.0).

[3] = test system: ApoE^–/– mice on an HFD; assay: Flow cytometry of the aorta; type: in vivo, mouse; set-up: Aorta Flow CD11b+F480+ / Aorta Flow CD11b+Ly6Chi: unit not given here
From the text: SerBut water was pH adjusted using 10 M NaOH to a final pH of 7.4. […] After 6 weeks, mice were euthanized. […] The liver was harvested and part was homogenized in tissue protein extraction reagent buffer (Invitrogen, 78510) supplemented with protease inhibitor mini tablets (Thermo Fisher Scientific, PIA32955) for Western blotting and qPCR. […] The heart with the ascending and descending aorta to the diaphragm was harvested. The perivascular adipose tissue was carefully removed by microdissection while keeping the adventitia intact. […] After 45 minutes of digestion at 37°C with orbital shaking, aortas were passed through a 70 μm cell strainer, rinsed, pelleted, and plated into a U-bottom 96-well microplate for staining. […] Cells were washed in PBS supplemented with 2% FBS (FACS buffer) and stained for 30 minutes on ice with surface antibodies at a 1:200 dilution in a 1:1 mixture of FACS buffer and Brilliant Stain Buffer (BD Biosciences). Cells were washed with FACS buffer and PBS and fixed with 2% paraformaldehyde on ice for 20 minutes. Cells were washed twice with PBS and resuspended in FACS buffer. Precision count beads (BioLegend) were used to determine absolute cell counts. In this study, antibodies used included those against CD16/CD32 (BioLegend, clone 93, catalog 101302), CCR2 (PE; […] BD Biosciences, clone HL3, catalog 558079, BD Biosciences), […] (APC; […] BD Biosciences, clone 30-F11, catalog 564225), F4/80 (BUV496; BD Biosciences, clone T45-2342, catalog 750644), […].5; BioLegend, clone M5/114.15.2, catalog 107626), Ly-6C (APC-Cy7; […]

[4] = test system: LDL-R; assay: Western blot of LDL-R in liver; type: in vivo, mouse
From the text: SerBut water was pH adjusted using 10 M NaOH to a final pH of 7.4. […] After 6 weeks, mice were euthanized. […] The liver was harvested and part was homogenized in tissue protein extraction reagent buffer (Invitrogen, 78510) supplemented with protease inhibitor mini tablets (Thermo Fisher Scientific, PIA32955) for Western blotting and qPCR.

[5] = test system: ApoE^–/– mice on an HFD; assay: qPCR of liver lipid metabolism genes; type: in vivo, mouse; set-up: srebf1 / srebf2 / fasn / acly / scd1 / acaca / cpt1a: scale not given here
Method: We then asked whether SerBut’s effects on disease pathology and inflammation may be partially mediated by changes in lipid metabolism by measuring lipogenic and lipid oxidation gene expression by qPCR after treatment for 6 weeks (Supplemental Figure 10, F–L).
as §1

CCCC(=O)OC[C@H](N)C(=O)O [SerBut, O-butyryl-L-serine]
Viability ([1]; 0.15 mM, normalized to untreated (100%) and Triton X-100 (0%)): 125.153% and 106.544% and 100.92% | Viability ([1]; 0.44 mM): 107.157% and 122.597% and 96.9325% | Viability ([1]; 1.33 mM): 115.337% and 91.7178% and 91.1043% | Viability ([1]; 4 mM): 117.28% and 100.204% and 101.431% | Viability ([1]; 12 mM): 121.575% and 99.0798% and 102.249% | cytotoxicity ([1]; even at 12 mM): no cytotoxicity | plaque severity score, CD68^+ stained area and necrotic core area ([2]; 6 weeks, compared with water-treated mice): significant reduction | STARY Score Average ([2]; average per mouse, experiments 1 and 2, grades per the 1st table): 4.31 and 4.429 and 3.833 and 3.944 and 4.333 and 4 and 3.75 and 3.583 | CD68+ IHC Quantification CD68 % Lesion ([2]; individual mice): 69.8799 % Lesion and 66.2246 % Lesion and 57.396 % Lesion and 61.0623 % Lesion and 37.3547 % Lesion and 58.9062 % Lesion and 54.5852 % Lesion | CD68+ IHC Quantification CD68+ (um2) ([2]; individual mice): 83533.6 um2 and 151477 um2 and 57839.2 um2 and 114375 um2 and 26376.1 um2 and 132530 um2 and 122451 um2 | CD68+ IHC Quantification Intima % Lesion ([2]; individual mice): 20.6972 % Lesion and 12.9871 % Lesion and 31.9636 % Lesion and 8.967 % Lesion and 42.8946 % Lesion and 25.2201 % Lesion and 37.0252 % Lesion | CD68+ IHC Quantification Intima (um2) ([2]; individual mice): 25307.3 um2 and 13303.3 um2 and 35976.1 um2 and 33683.8 um2 and 30916.8 um2 and 58237.6 um2 and 82003.5 um2 | CD68+ IHC Quantification Necrotic Core % Lesion ([2]; individual mice): 8.949 % Lesion and 20.1213 % Lesion and 8.471 % Lesion and 28.3702 % Lesion and 18.86 % Lesion and 14.738 % Lesion and 7.7245 % Lesion | CD68+ IHC Quantification Necrotic Core (um2) ([2]; individual mice): 10697.9 um2 and 47552.4 um2 and 8399.84 um2 and 53169.3 um2 and 13317 um2 and 32727 um2 and 17678.5 um2 | CD11b^+Ly6C^hi monocytes and CD4^+ T cells in the aorta ([3]; 6 weeks, compared to water-treated controls): significantly reduced | CD45^+ total leukocytes, CD11b^+ monocytes and CCR2^+CD11b^+ monocytes in the aorta ([3]; 6 weeks, compared with control groups): significantly reduced | CD11c^+MHCII^hi dendritic cells, CD11b^+F480^+ macrophages and CD19^+ B cells in the aorta ([3]; 6 weeks, compared with water controls): significantly reduced | Aorta Flow B cell Count ([3]; individual mice): 84.4967 and 264.868 and 232.342 and 96.7663 and 273.748 and 383.747 and 234.355 and 234.323 and 206.881 | Aorta Flow CD11b+F480+ ([3]; individual mice): 2.449 and 2.499 and 9.294 and 20.8231 and 9.359 and 5.0163 and 5.067 and 13.3899 and 12.3679 | Aorta Flow CD11b+Ly6Chi ([3]; individual mice): 17.5571 and 39.2703 and 12.2741 and 5.622 and 12.2459 and 19.99 and 12.7788 and 6.124 and 10.5288 | Aorta Flow T Cell Count ([3]; individual mice): 194.71 and 307.346 and 249.768 and 304.998 and 251.521 and 313.519 and 377.502 and 212.006 and 174.275 | Aorta Flow CD11b+ Count ([3]; individual mice, experiment 2): 156.172 and 152.184 and 222.93 and 139.214 and 215.701 and 328.097 and 166.257 and 155.161 and 99.1918 | Aorta Flow CD11b+CCR2+ ([3]; individual mice, experiment 2): 32.4838 and 20.9108 and 28.1725 and 25.737 and 41.3845 and 93.7421 and 32.3588 and 29.2332 and 22.0426 | Aorta Flow CD45 Count ([3]; individual mice, experiment 2): 1030.73 and 928.206 and 1219.99 and 1078.62 and 1098.57 and 1777.3 and 1018.75 and 756.69 and 848.641 | Aorta Flow CD11c+MHCIIhi ([3]; individual mice, cell count): 16.2419 and 24.3959 and 22.048 and 17.548 and 21.3193 and 22.8021 and 17.8532 and 22.4871 and 13.4705 | LDL-R protein levels in liver ([4]; 6 weeks): significantly suppressed | LDL-R Relative Expression ([4]; western Blot quantifiation, individual mice): 1.543 and 1.468 and 1.422 and 1.743 and 2.24 and 1.846 and 1.092 and 1.104 and 0.9748 | liver expression of Acly ([5]; 6 weeks, compared with NaBut-treated mice but not water-treated groups): significantly reduced expression | liver expression of Cpt1a ([5]; 6 weeks, compared with water-treated groups, P = 0.06): strong trend toward reduction | acaca ([5]; qPCR, individual mice): 0.188 and 0.284 and 0.192 and 0.406 and 0.341 | acly ([5]; qPCR, individual mice): 0.526 and 0.622 and 0.832 and 0.324 and 0.471 | cpt1a ([5]; qPCR, individual mice): 0.348 and 0.381 and 0.409 and 0.745 and 0.465 | fasn ([5]; qPCR, individual mice): 0.409 and 0.404 and 0.103 and 0.193 and 0.312 | scd1 ([5]; qPCR, individual mice): 1.631 and 1.826 and 1.024 and 0.978 and 0.7 | srebf1 ([5]; qPCR, individual mice): 0.853 and 0.562 and 0.47 and 0.606 and 0.321 | srebf2 ([5]; qPCR, individual mice): 0.511 and 0.812 and 0.428 and 0.961 and 0.372
